This passage reports mutagenic call results from PubChem BioAssay AID1259407 (Chemical Carcinogenesis Research Information System (CCRIS), 2018).

Structures are written as SMILES. Calls of active or inactive are those of the source. No rule for the calls is given here.

The data set deals with CCRIS mutagenicity, Ames/micronucleus/aberration tests. Description: CCRIS mutagenicity studies.
Setting [1] is: Test System: AMES SALMONELLA TYPHIMURIUM, Strain/Indicator: TA98, Metabolic Activation: NONE, Method: STANDARD PLATE.
The mark [2] stands for this setting: Test System: AMES SALMONELLA TYPHIMURIUM, Strain/Indicator: TA100, Metabolic Activation: NONE, Method: STANDARD PLATE.
The mark [3] stands for this setting: Test System: AMES SALMONELLA TYPHIMURIUM, Strain/Indicator: TA1535, Metabolic Activation: NONE, Method: STANDARD PLATE.
Setting [4] is: Test System: AMES SALMONELLA TYPHIMURIUM, Strain/Indicator: TA1537, Metabolic Activation: NONE, Method: STANDARD PLATE.
Where [5] appears, read: Test System: AMES SALMONELLA TYPHIMURIUM, Strain/Indicator: TA98, Metabolic Activation: RAT, LIVER, S-9, AROCLOR 1254, Method: STANDARD PLATE.
Where [6] appears, read: Test System: AMES SALMONELLA TYPHIMURIUM, Strain/Indicator: TA100, Metabolic Activation: RAT, LIVER, S-9, AROCLOR 1254, Method: STANDARD PLATE.

Take `Cc1snc2ccccc12`: the mutagenic call runs as follows: under setting [1], “inactive; negative”; (Test System: AMES SALMONELLA TYPHIMURIUM, Strain/Indicator: TA98, Metabolic Activation: S-9, Method: STANDARD PLATE) “inactive; negative”; under setting [2], “inactive; negative”; (Test System: AMES SALMONELLA TYPHIMURIUM, Strain/Indicator: TA100, Metabolic Activation: S-9, Method: STANDARD PLATE) “active; positive”; under setting [3], “inactive; negative”; (Test System: AMES SALMONELLA TYPHIMURIUM, Strain/Indicator: TA1535, Metabolic Activation: S-9, Method: STANDARD PLATE) “inactive; negative”. Also, the mutagenic call reads like this: under setting [4], “inactive; negative”; (Test System: AMES SALMONELLA TYPHIMURIUM, Strain/Indicator: TA1537, Metabolic Activation: S-9, Method: STANDARD PLATE) “inactive; negative”.
Regarding `[N-]=[N+]=NC[C@@H](O)c1ccccc1`, the mutagenic call (Test System: AMES SALMONELLA TYPHIMURIUM, Strain/Indicator: TA100, Metabolic Activation: RAT, LIVER, S-9, PCB, Method: PREINCUBATION) was “active; positive”.
On to `O=c1[nH]cc(N(CCCl)CCCl)c(=O)[nH]1`, for which the mutagenic call runs as follows: under setting [3], “active; positive”; (Test System: E. COLI, Strain/Indicator: WP2 UVRA, Metabolic Activation: HAMSTER, LIVER, S-9, AROCLOR 1254, Method: STANDARD PLATE) “active; positive”; (Test System: E. COLI, Strain/Indicator: WP2 UVRA, Metabolic Activation: HAMSTER, LIVER, S-9, Method: STANDARD PLATE) “active; positive”; (Test System: E. COLI, Strain/Indicator: WP2 UVRA, Metabolic Activation: MOUSE, LIVER, S-9, Method: STANDARD PLATE) “active; positive”; (Test System: E. COLI, Strain/Indicator: WP2 UVRA, Metabolic Activation: NONE, Method: STANDARD PLATE) “active; positive”; (Test System: E. COLI, Strain/Indicator: WP2 UVRA, Metabolic Activation: RAT, LIVER, S-9, AROCLOR 1254, Method: STANDARD PLATE) “active; positive”. The mutagenic call by setting is: (Test System: E. COLI, Strain/Indicator: WP2 UVRA, Metabolic Activation: RAT, LIVER, S-9, Method: STANDARD PLATE) “active; positive”; (Test System: MOUSE LYMPHOMA, Strain/Indicator: L5178Y (TK+/TK-), Metabolic Activation: NONE, Method: SUSPENSION/PLATE) “active; positive”; (Test System: MOUSE LYMPHOMA, Strain/Indicator: L5178Y (TK+/TK-), Metabolic Activation: RAT, LIVER, S-9, AROCLOR 1254, Method: SUSPENSION/PLATE) “active; positive”.
As for `Fc1ccccn1`, the mutagenic call (Test System: AMES SALMONELLA TYPHIMURIUM, Strain/Indicator: TA97, Metabolic Activation: NONE, Method: STANDARD PLATE) was “inactive; negative”; the mutagenic call (Test System: AMES SALMONELLA TYPHIMURIUM, Strain/Indicator: TA97, Metabolic Activation: RAT, LIVER, S-9, AROCLOR 1254, Method: STANDARD PLATE) is “inactive; negative”; the mutagenic call under setting [1] was “inactive; negative”; the mutagenic call under setting [5] is “active; positive”; the mutagenic call under setting [2] is “inactive; negative”; the mutagenic call under setting [6] was “inactive; negative”. Moreover, the mutagenic call (Test System: AMES SALMONELLA TYPHIMURIUM, Strain/Indicator: TA102, Metabolic Activation: NONE, Method: STANDARD PLATE) is “inactive; negative” and the mutagenic call (Test System: AMES SALMONELLA TYPHIMURIUM, Strain/Indicator: TA102, Metabolic Activation: RAT, LIVER, S-9, AROCLOR 1254, Method: STANDARD PLATE) was “inactive; negative”.
Turning to `C#C[C@]1(O)CC[C@H]2[C@@H]3CCC4=C(CCC(=O)C4)[C@H]3CC[C@@]21C`, the mutagenic call (End Point: IN VITRO CHROMOSOMAL ABERRATIONS, Test System: HUMAN PERIPHERAL LYMPHOCYTES, Metabolic Activation: NONE) was “inactive; negative”; the mutagenic call (End Point: IN VITRO CHROMOSOMAL ABERRATIONS, Test System: HUMAN PERIPHERAL LYMPHOCYTES, Metabolic Activation: RAT, LIVER, S-9, PHENOBARBITONE) is “active; positive (structural changes)”; the mutagenic call (Test System: AMES SALMONELLA TYPHIMURIUM, Strain/Indicator: TA98, Metabolic Activation: MOUSE, LIVER, S-9, Method: STANDARD PLATE) was “inactive; negative”; the mutagenic call under setting [1] was “inactive; negative”; the mutagenic call under setting [5] is “inactive; negative”; the mutagenic call (Test System: AMES SALMONELLA TYPHIMURIUM, Strain/Indicator: TA100, Metabolic Activation: MOUSE, LIVER, S-9, Method: STANDARD PLATE) was “inactive; negative”. Besides, the mutagenic call reads like this: under setting [2], “inactive; negative”; under setting [6], “inactive; negative”; (Test System: AMES SALMONELLA TYPHIMURIUM, Strain/Indicator: TA1535, Metabolic Activation: MOUSE, LIVER, S-9, Method: STANDARD PLATE) “inactive; negative”; under setting [3], “inactive; negative”; (Test System: AMES SALMONELLA TYPHIMURIUM, Strain/Indicator: TA1535, Metabolic Activation: RAT, LIVER, S-9, AROCLOR 1254, Method: STANDARD PLATE) “inactive; negative”; (Test System: AMES SALMONELLA TYPHIMURIUM, Strain/Indicator: TA1537, Metabolic Activation: MOUSE, LIVER, S-9, Method: STANDARD PLATE) “inactive; negative”. In addition, the mutagenic call by setting is: under setting [4], “inactive; negative”; (Test System: AMES SALMONELLA TYPHIMURIUM, Strain/Indicator: TA1537, Metabolic Activation: RAT, LIVER, S-9, AROCLOR 1254, Method: STANDARD PLATE) “inactive; negative”; (Test System: AMES SALMONELLA TYPHIMURIUM, Strain/Indicator: TA1538, Metabolic Activation: MOUSE, LIVER, S-9, Method: STANDARD PLATE) “inactive; negative”; (Test System: AMES SALMONELLA TYPHIMURIUM, Strain/Indicator: TA1538, Metabolic Activation: NONE, Method: STANDARD PLATE) “inactive; negative”; (Test System: AMES SALMONELLA TYPHIMURIUM, Strain/Indicator: TA1538, Metabolic Activation: RAT, LIVER, S-9, AROCLOR 1254, Method: STANDARD PLATE) “inactive; negative”.
In the case of `O=c1cc(CO)occ1O`, the mutagenic call was “inactive; negative” (End Point: IN VIVO MICRONUCLEUS, Test System: HEPATOCYTES, Species: RAT, Strain/Sex: FISHER 344 OR SD/MALE, Route: ORAL OR IP); “active; positive” (End Point: IN VIVO MICRONUCLEUS, Test System: PERIPHERAL BLOOD RETICULOCYTES, Species: RAT, Strain/Sex: FISHER 344 OR SD/MALE, Route: ORAL OR IP); “active; positive (dose related increase, significant only at high dose)” (End Point: In vivo micronucleus, Test System: Mononucleated hepatocytes/1000 hepatocytes, Species: Mouse, Strain/Sex: Ddy/Male, Route: Oral); “active; positive (dose related increase, significant only at high dose)” (End Point: In vivo micronucleus, Test System: Mononucleated hepatocytes/1000 hepatocytes, Species: Rat, Strain/Sex: F344/Male, Route: Oral); “active; positive” (Test System: AMES SALMONELLA TYPHIMURIUM, Strain/Indicator: TA98, Metabolic Activation: NONE, Method: PREINCUBATION); “active; positive” under setting [1]. Also, the mutagenic call was “active; positive” (Test System: AMES SALMONELLA TYPHIMURIUM, Strain/Indicator: TA98, Metabolic Activation: RAT, LIVER, S-9, AROCLOR 1254, Method: PREINCUBATION); “active; positive” under setting [5]; “active; positive” under setting [2]; “active; positive” (Test System: AMES SALMONELLA TYPHIMURIUM, Strain/Indicator: TA100, Metabolic Activation: RAT, LIVER, MICROSOMES, PHENOBARBITAL, Method: STANDARD PLATE); “inactive; negative” (Test System: AMES SALMONELLA TYPHIMURIUM, Strain/Indicator: TA100, Metabolic Activation: RAT, LIVER, S-9, AROCLOR 1254, Method: PREINCUBATION); “active; positive” under setting [6]. Further, the mutagenic call is “inactive; negative” (Test System: AMES SALMONELLA TYPHIMURIUM, Strain/Indicator: TA100, Metabolic Activation: RAT, LIVER, S-9, PHENOBARBITAL, Method: PREINCUBATION); “active; positive” (Test System: Ames Salmonella typhimurium, Strain/Indicator: TA100, Metabolic Activation: None, Method: Preincubation); “active; positive” (Test System: Ames Salmonella typhimurium, Strain/Indicator: TA100, Metabolic Activation: Rat, Liver, S-9, Phenobarbital and 6-naphthoflavone, Method: Preincubation).
Consider `O=CN(O)c1ccc(Oc2ccc(Cl)cc2Cl)cc1`, for which the mutagenic call under setting [2] was “inactive; negative” and the mutagenic call (Test System: AMES SALMONELLA TYPHIMURIUM, Strain/Indicator: TA100, Metabolic Activation: RAT, LIVER, S-9, KANECLOR 500, Method: STANDARD PLATE) is “active; positive”.
